Measured values from patent US9265253B2, “Use of macrocyclic picolinamides as fungicides” (DOW AGROSCIENCES LLC, priority 2013, dated 2016).

Tested on: Blumeria graminis f. sp. tritici; Synonym: Erysiphe graminis f. sp. tritici
Assay: Wheat Powdery Mildew (ERYSGT) disease control
Assay type: in vivo
Settings: 100 ppm, 1 Day Protectant
Protocol: Technical grades of materials were dissolved in acetone, which were then mixed with nine volumes of water containing 110 ppm Triton X-100. The fungicide solutions were applied onto wheat seedlings using an automated booth sprayer to run-off. All sprayed plants were allowed to air dry prior to further handling. All fungicides were evaluated using the aforementioned method for their activity vs. all target diseases. Wheat leaf blotch and brown rust activity were also evaluated using track spray applications, in which case the fungicides were formulated as EC formulations, containing 0.1% Trycol 5941 in the spray solutions. Wheat plants (variety Yuma) were grown from seed in a greenhouse in 50% mineral soil/50% soil-less Metro mix until the first leaf was fully emerged, with 7-10 seedlings per pot. These plants were inoculated with an aqueous spore suspension of Septoria tritici either prior to or after fungicide treatments. […] When disease symptoms were fully expressed on the 1st leaves of untreated plants, infection levels were assessed on a scale of 0 to 100 percent disease severity. Percent disease control was calculated using the ratio of disease severity on treated plants relative to untreated plants. […]

Compound: COc1ccnc(C(=O)N[C@H]2CCC[C@H](Cc3ccccc3)[C@@H](OCC(C)C)[C@H](C)OC2=O)c1OCOC(=O)C(C)C [Compound F151]
- Disease Control ERYSGT 1 DP: A (80-100)

Compound: COc1ccnc(C(=O)N[C@H]2CCC[C@H](Cc3ccccc3)[C@@H](OCC(C)C)[C@H](C)OC2=O)c1OCOC(C)=O [Compound F106]
- Disease Control ERYSGT 1 DP: A (80-100)
